These results are taken from ChEMBL document CHEMBL4007459, “Design of Potent mRNA Decapping Scavenger Enzyme (DcpS) Inhibitors with Improved Physicochemical Properties To Investigate the Mechanism of Therapeutic Benefit in Spinal Muscular Atrophy (SMA)” (J Med Chem, 2017).

For orientation: IC50 means the point on the concentration scale where inhibition reaches its midpoint. Read a low IC50 as greater potency in that assay. One may read the logD as the decadic logarithm of the distribution of all forms, ionised or not, between an organic phase and buffer at a given pH. A low value points to lower lipophilicity. The solubility (kinetic) is the concentration staying in solution when a stock, usually in DMSO, is diluted into the medium. The Papp A→B is the apparent permeability from the apical to the basolateral side of a cell layer.

Values after ≈ are worked out from the molar mass of the structure shown. Bounds are passed on as bounds.

The target of one data set is T1, Dihydrofolate reductase (Homo sapiens, UniProt P00374).
T1 sequence (P00374 whole entry): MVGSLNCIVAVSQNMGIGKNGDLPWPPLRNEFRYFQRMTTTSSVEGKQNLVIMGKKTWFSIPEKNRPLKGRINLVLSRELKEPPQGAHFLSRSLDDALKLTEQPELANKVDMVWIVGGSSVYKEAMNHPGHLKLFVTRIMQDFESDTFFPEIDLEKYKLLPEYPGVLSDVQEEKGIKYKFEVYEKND
Briefly: Inhibition of DHFR (unknown origin).

The nature of data set [1]: Drug uptake in HEK293 cells at 10 nM in presence of vacuolar type ATPase inhibitor bafilomycin measured after […]. Type of data set: ADME, cell-based. The conditions noted are these: human, 0.01 µM.
Data set [2] in a line: Drug uptake in lymphoblasts (unknown origin) at 10 nM in presence of vacuolar type ATPase inhibitor bafilomycin measured after […]. It counts as ADME, cell-based. The conditions noted are these: lymphoblast, 0.01 µM.
A short description of data set [3]: Drug uptake in lymphoblasts (unknown origin) at 10 nM in presence of vacuolar type ATPase inhibitor concanamycin A measured after […]. Type of data set: ADME, cell-based. The conditions noted are these: lymphoblast, 0.01 µM.
Data set [4] is described as follows: Drug uptake in HEK293 cells at 10 nM in presence of vacuolar type ATPase inhibitor concanamycin A measured after […]. It counts as ADME, cell-based. The conditions noted are these: human, 0.01 µM.
The nature of data set [5]: Apparent intrinsic clearance in human liver microsomes at 1 uM. Type of data set: ADME, microsome. The conditions noted are these: read-out: CLH(app).
A short description of data set [6]: Lipophilicity, log D of the compound at pH 7.4. The conditions noted are these: buffer. Type of data set: physicochemical.
Data set [7] can be described thus: Kinetic solubility of the compound at pH 6.5. As to conditions: buffer; call rule not given here.
A short description of data set [8]: Stability in human liver microsomes at 1 uM. Type of data set: ADME, microsome. As to conditions: read-out: Stability.
A short description of data set [9]: Apparent passive permeability across apical to basolateral side in RRCK2 cells at 2 uM. Type of data set: ADME, cell-based, Canis lupus familiaris. The conditions noted are these: dog, MDCK.
A further data set has as its target T2, m7GpppX diphosphatase (Homo sapiens, UniProt Q96C86).
T2 sequence (Q96C86 whole entry): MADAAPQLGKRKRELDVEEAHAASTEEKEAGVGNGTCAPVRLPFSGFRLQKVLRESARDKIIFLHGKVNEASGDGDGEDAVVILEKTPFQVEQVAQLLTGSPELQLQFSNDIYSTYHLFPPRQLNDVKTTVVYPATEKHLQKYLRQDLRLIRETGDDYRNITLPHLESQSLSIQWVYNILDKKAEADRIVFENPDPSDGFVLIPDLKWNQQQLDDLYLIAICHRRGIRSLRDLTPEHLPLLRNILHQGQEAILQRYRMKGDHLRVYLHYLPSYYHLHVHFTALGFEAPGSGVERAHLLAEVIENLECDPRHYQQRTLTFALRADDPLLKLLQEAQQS

For the next data set, the system named is Plasma. The data set is described as follows: Unbound fraction in FVB/N mouse plasma at 30 mg/kg, ip. It counts as ADME, organism-based. As to conditions: in vivo.
The nature of data set [10]: Drug uptake in lymphoblasts (unknown origin) at 100 nM in presence of vacuolar type ATPase inhibitor concanamycin A measured after […]. It counts as ADME, cell-based. As to conditions: lymphoblast, 0.1 µM.
A short description of data set [11]: Drug uptake in HEK293 cells at 100 nM in presence of vacuolar type ATPase inhibitor concanamycin A measured after […]. It counts as ADME, cell-based. As to conditions: human, 0.1 µM.
The nature of data set [12]: Drug uptake in lymphoblasts (unknown origin) at 100 nM in presence of vacuolar type ATPase inhibitor bafilomycin measured after […]. The conditions noted are these: lymphoblast, 0.1 µM. Type of data set: ADME, cell-based.
The nature of data set [13]: Drug uptake in HEK293 cells at 100 nM in presence of vacuolar type ATPase inhibitor bafilomycin measured after […]. It counts as ADME, cell-based. As to conditions: human, 0.1 µM.

Description for m7GpppX diphosphatase: Inhibition of human DcpS assessed as increase in SMN2 promoter activity

For the compound `Nc1nc(N)c2c(COc3ccc(F)cc3F)cccc2n1`, on Dihydrofolate reductase, the IC50 was greater than 50 µM.
For the compound `Nc1nc(N)c2c(OCC3CCN(Cc4ccccc4F)CC3)cccc2n1`, the Drug uptake result in [1], in [2], in data set [3] and in data set [4] was “Not Active” each time.
`Nc1nc(N)c2c(COc3ccccc3F)cccc2n1`: the IC50 on Dihydrofolate reductase was greater than 30 µM.
Still for that read-out and setting: next, `Nc1nc(N)c2c(COc3cccc(Cl)c3)cccc2n1`: 38 µM; `Nc1nc(N)c2c(OCc3cc(F)cc(F)c3)cccc2n1`: 0.63 µM.
Take `Cc1ncccc1OCc1cccc2nc(N)nc(N)c12`: the microsomal CLint at 1 µM in [5] is less than 8 µL/min/mg. The Drug uptake entry in data set [1], in data set [2], in data set [3] and in data set [4] was “Not Active” in each case. The pH-dependent lipophilicity (logD) in data set [6] was determined as 1.4. This compound showed a solubility (kinetic) in data set [7] of 274 µM (≈ 77.1 µg/mL). Further, on Dihydrofolate reductase, the IC50 is greater than 150 µM. The half-life at 1 µM in data set [8] was greater than 120 min. In addition, in data set [9], the Papp A→B at 2 µM was determined as 18 ×10⁻⁶ cm/s.
As to `Nc1nc(N)c2c(COc3cccc(F)c3)cccc2n1`, the IC50 against Dihydrofolate reductase was greater than 50 µM.
At Dihydrofolate reductase, `Nc1nc(N)c2c(OCC3CCOCC3)cccc2n1` came in with a 50% inhibitory concentration (IC50) of 28 µM.
As to `Nc1nc(N)c2c(OCC3CCN(Cc4c(Cl)cccc4Cl)CC3)cccc2n1`, the microsomal CLint at 1 µM in [5] was greater than 250 µL/min/mg. Besides, the Drug uptake entry in [1], in data set [2], in [3] and in data set [4] was “Not Active” each time. The compound further yielded a log distribution coefficient (logD) in [6] of 2.8. In [7], this compound registered a kinetic solubility of 45 µM (≈ 19.5 µg/mL). The half-life at 1 µM in data set [8] is 3 min. Besides, in [9], the Papp A→B at 2 µM came out at 0.62 ×10⁻⁶ cm/s.
The compound `CC1(COc2cccc3nc(N)nc(N)c23)COC1` returned a concentration for half-maximal inhibition (IC50) against Dihydrofolate reductase of 15 µM.
In the case of `Cc1cc(OCC2CCOCC2)c2c(N)nc(N)nc2c1`, the IC50 against m7GpppX diphosphatase is greater than 10 µM.
For the compound `N#Cc1cc(F)cc(OCc2cccc3nc(N)nc(N)c23)c1`, the microsomal CLint at 1 µM in data set [5] is less than 8.4 µL/min/mg. In addition, the “Cp(f)” value in the data set with Plasma is given as 173 nM. The pH-dependent lipophilicity (logD) in data set [6] was found to be 1.9. Also, the kinetic solubility in data set [7] was determined as 31 µM (≈ 9.59 µg/mL). It took 52 µM to reach half-maximal inhibition against Dihydrofolate reductase (IC50). For the same compound, the half-life at 1 µM in data set [8] was greater than 115 min. In data set [9], the Papp A→B at 2 µM is 13 ×10⁻⁶ cm/s.
For the compound `Nc1nc(N)c2c(OCC3CCN(Cc4c(F)cccc4Cl)CC3)cccc2n1`, the Drug uptake result in data set [1], in [2], in data set [3] and in [4] was “Not Active” in each case.
The compound `COC[C@H](C)Oc1cccc2nc(N)nc(N)c12` displayed an IC50 against Dihydrofolate reductase of 1.4 µM.
`COC[C@@H](C)Oc1cccc2nc(N)nc(N)c12` had an IC50 against Dihydrofolate reductase of 25 µM.
`Cc1cc(COc2cc(F)cc(C#N)c2)c2c(N)nc(N)nc2c1` registered a 50% inhibitory concentration (IC50) against m7GpppX diphosphatase greater than 10 µM.
Consider `CCN(CC)CCCC(C)Nc1ccnc2cc(Cl)ccc12` (centres undefined) [CHLOROQUINE], for which the Drug uptake entry in data set [10], in data set [11], in [12] and in data set [13] was “Not Active” throughout.
